Data reported in patent US4640799A, “Carbapenem antibiotics” (priority 1985, dated 1987).

System: S. aureus A-9606
Assay: Protective effect in the intramuscular treatment of infected mice
Type: in vivo
Conditions: Staphylococcus aureus, A9606, im, i.m. 0 and 2 h postinfection, i.p. challenge ~9 × 10^7 (Ex. 4 and 5), read-out: PD50/treatment
Description: Treatment Schedule: *For compound of Ex. 2, mice were infected i.p. with
A20481. For compounds of Ex. 4 and 5, mice were infected i.p. with
(A9843A). Mice were treated i.m. with drugs 0 and 2 h postinfection.

SMILES | ED50
C[C@@H](O)[C@H]1C(=O)N2C(C(=O)[O-])=C(SCC[N+]3(C)CC[S+]([O-])CC3)C[C@H]12 (single isomer, unassigned) [Ex. 5 comp. A] | 1.2 mg/kg
C[C@@H](O)[C@H]1C(=O)N2C(C(=O)[O-])=C(SCC[N+]3(C)CCSCC3)C[C@H]12 [Ex. 2, 3-[2-(N-methyl-thiomorpholinium)ethylthio]-6α-[1'-(R)-hydroxyethyl]-7-oxo-1-azabicyclo[3.2.0]-hept-2-ene-2-carboxylate] | 0.72 mg/kg
C[C@@H](O)[C@H]1C(=O)N2C(C(=O)[O-])=C(SCC[N+]3(C)CCN(C)CC3)C[C@H]12 [Ex. 4, (5R,6S)3-[2-(1,4-dimethyl-1-piperazinium)ethylthio]-6-[1-(R)-hydroxyethyl]-7-oxo-1-azabicyclo[3.2.0]hept-2-ene-2-carboxylate] | 1.6 mg/kg
